Laboratory results published in patent US6737383B1, “Herbicidal oxadiazolidines” (priority 1999, dated 2004).

How the values were obtained:
dallisgrass = experiment: Test D dallisgrass; assay type: in vivo, Paspalum dilatatum; settings: Postemergence, 0 to 100 scale
common ragweed = experiment: Test D common ragweed; assay type: in vivo, Ambrosia elatior; settings: Postemergence, 0 to 100 scale
Green foxtail = experiment: Test D green foxtail; assay type: in vivo; settings: Postemergence, 0 to 100 scale, 0 no injury, 100 complete control
common groundsel = experiment: Test D common groundsel; assay type: in vivo, Senecio vulgaris; settings: Postemergence, 0 to 100 scale
Johnson grass = experiment: Test D Johnson grass; assay type: in vivo, Sorghum halepense; settings: Postemergence, 0 to 100 scale
bermuda-grass = experiment: Test D bermudagrass; assay type: in vivo, Cynodon dactylon; settings: Postemergence, 0 to 100 scale
[1] = Rate 64 g/ha, 0 no injury, 100 complete control
[2] = Rate 125 g/ha, 0 no injury, 100 complete control

CC(C)N(C(=O)n1oc(=O)n(C2CC2)c1=O)c1ccc(F)cc1F [Compound 299]
Plant response rating, Dallisgrass (dallisgrass; [1]): 100
Plant response rating, Dallisgrass (dallisgrass; [2]): 100
Plant response rating, Dallisgrass (dallisgrass; Rate 250 g/ha): 100
Plant response rating, Dallisgrass (dallisgrass; Rate 500 g/ha): 100
Plant response rating, C. ragweed (common ragweed; [1]): 100
Plant response rating, C. ragweed (common ragweed; [2]): 50
Plant response rating, C. ragweed (common ragweed; Rate 250 g/ha): 100
Plant response rating, C. ragweed (common ragweed; Rate 500 g/ha): 100
Plant response rating, Green foxtail (Green foxtail; Rate 64 g/ha): 100
Plant response rating, Green foxtail (Green foxtail; Rate 125 g/ha): 100
Plant response rating, Com. groundsel (common groundsel; [1]): 100
Plant response rating, Com. groundsel (common groundsel; [2]): 100
Plant response rating, Com. groundsel (common groundsel; Rate 250 g/ha): 100
Plant response rating, Com. groundsel (common groundsel; Rate 500 g/ha): 100
Plant response rating Johnsongrass (Johnson grass; [1]): 0
Plant response rating Johnsongrass (Johnson grass; [2]): 60
Plant response rating Johnsongrass (Johnson grass; Rate 250 g/ha): 100
Plant response rating Johnsongrass (Johnson grass; Rate 500 g/ha): 100
Plant response rating, Bermudagrass (bermuda-grass; [1]): 90
Plant response rating, Bermudagrass (bermuda-grass; [2]): 100
Plant response rating, Bermudagrass (bermuda-grass; Rate 250 g/ha): 100
Plant response rating, Bermudagrass (bermuda-grass; Rate 500 g/ha): 100
